ChEMBL document CHEMBL4818986, “Recent progress on HDAC inhibitors with dual targeting capabilities for cancer treatment” (Eur J Med Chem, 2020)
One block for each compound: values may come before it.

Experiments:
KG-1 = experiment: Antiproliferative activity against human KG-1 cells incubated for 72 hrs by MTT assay; assay type: functional, cell-based; settings: KG-1, 72 h
MDA-MB-468 = experiment: Antiproliferative activity against human MDA-MB-468 cells incubated for 72 hrs by MTT assay; assay type: functional, cell-based; settings: MDA-MB-468, 72 h
A549 [1] = experiment: Antiproliferative activity against human A549 cells incubated for 72 hrs by MTT assay; assay type: functional, cell-based; settings: A549, 72 h
[2] = molecular target: Cyclin-dependent kinase 4 (Homo sapiens, UniProt P11802); experiment: Inhibition of CDK4 (unknown origin)
Histone deacetylase 1 [3] = molecular target: T1, Histone deacetylase 1 (Homo sapiens, UniProt Q13547); experiment: Inhibition of HDAC1 (unknown origin)
[4] = Inhibition of human SCC-25 cell metabolism incubated for 72 hrs by CCK8 assay; assay type: functional; settings: SCC-25, 72 h
Histone deacetylase [5] = experiment: Inhibition of HDAC in human K562 cells using Boc-K(Ac)-AMC as substrate preincubated for 3 hrs followed by substrate addition and measured after 3 hrs by fluorescence method; assay type: cell-based
[6] = molecular target: T2, Histone-lysine N-methyltransferase EHMT2 (Homo sapiens, UniProt Q96KQ7); experiment: Inhibition of G9a in human MDA-MB-231 cells assessed as effect on H3K9Me2 levels incubated for 48 hrs by immunofluorescence in-cell western assay; assay type: cell-based
T2 sequence (Q96KQ7 whole entry): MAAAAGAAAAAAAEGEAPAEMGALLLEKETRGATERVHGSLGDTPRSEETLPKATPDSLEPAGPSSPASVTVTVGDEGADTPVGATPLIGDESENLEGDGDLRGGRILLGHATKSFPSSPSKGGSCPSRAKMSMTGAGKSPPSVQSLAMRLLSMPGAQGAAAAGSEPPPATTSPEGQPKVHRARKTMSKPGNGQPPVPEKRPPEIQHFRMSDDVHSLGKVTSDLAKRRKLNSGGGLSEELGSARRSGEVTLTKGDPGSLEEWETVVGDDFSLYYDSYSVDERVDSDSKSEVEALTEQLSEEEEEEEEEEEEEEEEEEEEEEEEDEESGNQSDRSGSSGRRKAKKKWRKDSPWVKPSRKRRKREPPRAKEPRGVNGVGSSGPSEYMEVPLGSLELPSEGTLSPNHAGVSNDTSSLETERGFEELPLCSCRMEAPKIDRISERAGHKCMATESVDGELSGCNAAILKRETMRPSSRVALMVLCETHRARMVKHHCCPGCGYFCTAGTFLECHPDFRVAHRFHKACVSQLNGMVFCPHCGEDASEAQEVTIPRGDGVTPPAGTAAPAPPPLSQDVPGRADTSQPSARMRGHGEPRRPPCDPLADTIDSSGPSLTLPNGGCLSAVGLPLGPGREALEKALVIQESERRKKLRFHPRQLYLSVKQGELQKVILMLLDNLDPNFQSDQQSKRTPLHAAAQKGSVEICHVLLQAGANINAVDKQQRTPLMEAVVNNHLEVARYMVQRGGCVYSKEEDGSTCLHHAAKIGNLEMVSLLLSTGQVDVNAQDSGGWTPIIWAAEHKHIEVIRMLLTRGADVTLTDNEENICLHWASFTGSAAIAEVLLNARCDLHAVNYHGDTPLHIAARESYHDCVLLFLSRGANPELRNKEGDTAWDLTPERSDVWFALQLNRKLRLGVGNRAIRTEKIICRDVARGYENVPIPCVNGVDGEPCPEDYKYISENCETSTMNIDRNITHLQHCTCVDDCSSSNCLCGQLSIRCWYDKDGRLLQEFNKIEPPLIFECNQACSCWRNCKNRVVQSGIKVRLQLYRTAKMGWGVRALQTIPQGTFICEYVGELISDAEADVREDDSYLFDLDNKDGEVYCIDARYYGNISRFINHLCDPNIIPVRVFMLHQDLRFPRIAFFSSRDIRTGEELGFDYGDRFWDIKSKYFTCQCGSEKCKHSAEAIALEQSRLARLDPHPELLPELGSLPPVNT

A549 [7] = experiment: Antiproliferative activity against human A549 cells; assay type: functional, cell-based
[8] = molecular target: T3, Protein deacetylase HDAC6 (Homo sapiens, UniProt Q9UBN7); experiment: Inhibition of HDAC6 (unknown origin)
T3 sequence (Q9UBN7 whole entry): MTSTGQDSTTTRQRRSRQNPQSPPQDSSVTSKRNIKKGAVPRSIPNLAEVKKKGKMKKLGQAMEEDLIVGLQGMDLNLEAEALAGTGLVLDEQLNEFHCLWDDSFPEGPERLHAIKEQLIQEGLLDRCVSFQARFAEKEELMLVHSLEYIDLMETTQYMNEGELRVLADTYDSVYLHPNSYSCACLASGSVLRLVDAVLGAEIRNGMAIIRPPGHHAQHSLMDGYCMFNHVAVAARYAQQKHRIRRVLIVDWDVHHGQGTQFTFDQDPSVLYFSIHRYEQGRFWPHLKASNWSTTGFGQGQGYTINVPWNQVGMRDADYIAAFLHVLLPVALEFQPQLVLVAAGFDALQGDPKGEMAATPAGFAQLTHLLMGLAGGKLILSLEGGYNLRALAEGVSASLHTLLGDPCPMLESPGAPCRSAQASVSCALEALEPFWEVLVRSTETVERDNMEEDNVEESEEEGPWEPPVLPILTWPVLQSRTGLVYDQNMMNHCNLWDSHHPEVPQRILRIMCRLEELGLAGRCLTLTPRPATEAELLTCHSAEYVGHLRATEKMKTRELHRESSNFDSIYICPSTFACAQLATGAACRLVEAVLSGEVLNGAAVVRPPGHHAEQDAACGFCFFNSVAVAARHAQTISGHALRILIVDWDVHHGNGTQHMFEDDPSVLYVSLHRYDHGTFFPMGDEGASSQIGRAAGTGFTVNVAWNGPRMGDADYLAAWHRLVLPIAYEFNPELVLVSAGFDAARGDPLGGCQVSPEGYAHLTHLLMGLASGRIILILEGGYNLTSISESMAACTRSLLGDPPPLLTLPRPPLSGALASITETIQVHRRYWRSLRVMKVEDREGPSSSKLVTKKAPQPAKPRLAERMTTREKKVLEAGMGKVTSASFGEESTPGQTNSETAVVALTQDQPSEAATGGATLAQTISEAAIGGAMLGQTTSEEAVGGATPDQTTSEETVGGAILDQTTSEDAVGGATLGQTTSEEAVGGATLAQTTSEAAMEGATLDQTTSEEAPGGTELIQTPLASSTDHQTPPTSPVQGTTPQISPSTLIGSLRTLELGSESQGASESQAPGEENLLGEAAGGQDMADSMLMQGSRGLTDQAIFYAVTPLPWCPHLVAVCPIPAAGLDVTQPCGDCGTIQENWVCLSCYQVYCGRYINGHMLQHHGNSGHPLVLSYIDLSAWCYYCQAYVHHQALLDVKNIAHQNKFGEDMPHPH

[9] = molecular target: T4, Epidermal growth factor receptor (Homo sapiens, UniProt P00533); experiment: Inhibition of EGFR (unknown origin)
Histone deacetylase 1 [10] = molecular target: T1, Histone deacetylase 1; experiment: Inhibition of HDAC1 (unknown origin) using Ac-peptide as substrate in preincubated for 15 mins followed by substrate addition and measured after 60 mins by fluorescence method
[11] = molecular target: DNA (cytosine-5)-methyltransferase 3A (Homo sapiens, UniProt Q9Y6K1); experiment: Inhibition of DNMT3A (unknown origin) using biotinylated DNA oligonucleotides as substrate in presence of [3H-SAM] preincubated for 15 mins followed by substrate and [3H-SAM] addition and measured after 4 hrs by liquid scintillation counting method
[12] = molecular target: DNA (cytosine-5)-methyltransferase 1 (Homo sapiens, UniProt P26358); experiment: Inhibition of DNMT1 (unknown origin) using poly(dI-dC)-poly(dI-dC as substrate in presence of [3H-SAM] preincubated for 15 mins followed by substrate and [3H-SAM] addition and measured after 120 mins by liquid scintillation counting method
CAPAN-1 = experiment: Antiproliferative activity against human CAPAN 1 cells incubated for 72 hrs by CCK8 assay; assay type: functional, cell-based; settings: CAPAN-1, 72 h
Histone deacetylase 1 [13] = molecular target: T1, Histone deacetylase 1; experiment: Inhibition of human HDAC1 expressed in baculovirus expression system by fluorescence method
[14] = molecular target: Class 1 histone deacetylase (Homo sapiens, UniProt Q13547+O15379+Q92769+Q9BY41); experiment: Inhibition of HDAC class1 (unknown origin); assay type: protein assay
4T1 = experiment: Antiproliferative activity against mouse 4T1 cells by EdU alexa fluor high-throughput imaging method; assay type: functional, cell-based
[15] = molecular target: T4, Epidermal growth factor receptor; experiment: Inhibition of EGFR (unknown origin) incubated for 40 mins by kinase-glo plus luminescence assay
Histone deacetylase [16] = experiment: Inhibition of HDAC in human HeLa cell nuclear extracts using Boc-Lys (acetyl)-AMC as substrate preincubated for 5 mins followed by substrate addition and measured after 30 mins by fluorescence based assay
THP-1 = experiment: Antiproliferative activity against human THP1 incubated for 72 hrs by Trypan Blue reagent based assay; assay type: functional, cell-based; settings: THP-1, 72 h
U-87 MG = experiment: Antiproliferative activity against human U87 cells assessed as reduction in cell viability incubated for 72 hrs by MTT assay; assay type: functional, cell-based, U-87MG ATCC
U-251 = experiment: Antiproliferative activity against human U251 cells assessed as reduction in cell viability incubated for 72 hrs by MTT assay; assay type: functional, cell-based; settings: U-251, 72 h
T98G = experiment: Antiproliferative activity against human T98G cells assessed as reduction in cell viability incubated for 72 hrs by MTT assay; assay type: functional, cell-based

T1 sequence (Q13547 whole entry): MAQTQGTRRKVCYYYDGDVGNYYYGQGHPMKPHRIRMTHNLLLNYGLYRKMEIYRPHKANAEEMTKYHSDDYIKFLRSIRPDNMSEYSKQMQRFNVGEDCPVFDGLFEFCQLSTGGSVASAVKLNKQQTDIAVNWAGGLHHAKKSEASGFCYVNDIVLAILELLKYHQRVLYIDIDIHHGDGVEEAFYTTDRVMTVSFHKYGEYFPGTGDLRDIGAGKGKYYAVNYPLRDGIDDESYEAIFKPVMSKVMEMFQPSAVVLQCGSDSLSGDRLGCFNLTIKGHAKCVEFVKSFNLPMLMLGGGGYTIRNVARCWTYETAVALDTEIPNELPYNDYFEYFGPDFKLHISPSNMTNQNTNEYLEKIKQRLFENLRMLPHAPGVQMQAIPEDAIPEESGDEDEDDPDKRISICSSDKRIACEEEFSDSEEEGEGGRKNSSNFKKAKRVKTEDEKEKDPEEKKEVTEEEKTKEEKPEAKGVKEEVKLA
T4 sequence (P00533 whole entry): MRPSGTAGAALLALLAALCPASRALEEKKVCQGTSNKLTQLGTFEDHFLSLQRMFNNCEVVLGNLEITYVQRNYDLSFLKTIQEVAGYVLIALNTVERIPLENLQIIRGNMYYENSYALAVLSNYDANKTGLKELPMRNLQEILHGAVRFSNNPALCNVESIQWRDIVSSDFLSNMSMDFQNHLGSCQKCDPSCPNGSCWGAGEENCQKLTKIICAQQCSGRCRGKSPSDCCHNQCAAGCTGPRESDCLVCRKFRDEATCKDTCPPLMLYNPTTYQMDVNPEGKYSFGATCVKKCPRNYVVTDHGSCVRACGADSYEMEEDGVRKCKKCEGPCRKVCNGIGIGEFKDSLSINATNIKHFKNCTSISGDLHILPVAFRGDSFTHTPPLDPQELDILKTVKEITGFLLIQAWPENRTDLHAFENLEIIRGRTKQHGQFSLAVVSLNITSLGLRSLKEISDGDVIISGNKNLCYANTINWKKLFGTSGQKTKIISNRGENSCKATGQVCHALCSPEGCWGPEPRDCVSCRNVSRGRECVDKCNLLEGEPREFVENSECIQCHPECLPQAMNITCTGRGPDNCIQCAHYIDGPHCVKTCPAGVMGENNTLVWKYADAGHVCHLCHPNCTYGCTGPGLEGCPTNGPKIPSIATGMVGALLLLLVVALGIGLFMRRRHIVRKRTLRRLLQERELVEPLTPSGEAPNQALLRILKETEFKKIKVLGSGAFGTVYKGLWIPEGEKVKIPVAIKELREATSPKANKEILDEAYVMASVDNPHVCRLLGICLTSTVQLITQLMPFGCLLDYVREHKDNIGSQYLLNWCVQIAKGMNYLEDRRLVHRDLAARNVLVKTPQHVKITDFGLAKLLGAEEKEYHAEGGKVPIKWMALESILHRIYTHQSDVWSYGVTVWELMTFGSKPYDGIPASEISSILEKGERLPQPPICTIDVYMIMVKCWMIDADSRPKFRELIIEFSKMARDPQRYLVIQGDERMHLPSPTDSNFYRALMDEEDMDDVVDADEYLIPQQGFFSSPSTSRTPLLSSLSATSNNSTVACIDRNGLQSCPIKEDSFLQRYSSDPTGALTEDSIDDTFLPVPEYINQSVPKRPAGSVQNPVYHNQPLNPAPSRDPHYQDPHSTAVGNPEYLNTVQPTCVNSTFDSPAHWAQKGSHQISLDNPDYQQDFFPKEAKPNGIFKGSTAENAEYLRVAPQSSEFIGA
DNA (cytosine-5)-methyltransferase 1, sequence (P26358 whole entry): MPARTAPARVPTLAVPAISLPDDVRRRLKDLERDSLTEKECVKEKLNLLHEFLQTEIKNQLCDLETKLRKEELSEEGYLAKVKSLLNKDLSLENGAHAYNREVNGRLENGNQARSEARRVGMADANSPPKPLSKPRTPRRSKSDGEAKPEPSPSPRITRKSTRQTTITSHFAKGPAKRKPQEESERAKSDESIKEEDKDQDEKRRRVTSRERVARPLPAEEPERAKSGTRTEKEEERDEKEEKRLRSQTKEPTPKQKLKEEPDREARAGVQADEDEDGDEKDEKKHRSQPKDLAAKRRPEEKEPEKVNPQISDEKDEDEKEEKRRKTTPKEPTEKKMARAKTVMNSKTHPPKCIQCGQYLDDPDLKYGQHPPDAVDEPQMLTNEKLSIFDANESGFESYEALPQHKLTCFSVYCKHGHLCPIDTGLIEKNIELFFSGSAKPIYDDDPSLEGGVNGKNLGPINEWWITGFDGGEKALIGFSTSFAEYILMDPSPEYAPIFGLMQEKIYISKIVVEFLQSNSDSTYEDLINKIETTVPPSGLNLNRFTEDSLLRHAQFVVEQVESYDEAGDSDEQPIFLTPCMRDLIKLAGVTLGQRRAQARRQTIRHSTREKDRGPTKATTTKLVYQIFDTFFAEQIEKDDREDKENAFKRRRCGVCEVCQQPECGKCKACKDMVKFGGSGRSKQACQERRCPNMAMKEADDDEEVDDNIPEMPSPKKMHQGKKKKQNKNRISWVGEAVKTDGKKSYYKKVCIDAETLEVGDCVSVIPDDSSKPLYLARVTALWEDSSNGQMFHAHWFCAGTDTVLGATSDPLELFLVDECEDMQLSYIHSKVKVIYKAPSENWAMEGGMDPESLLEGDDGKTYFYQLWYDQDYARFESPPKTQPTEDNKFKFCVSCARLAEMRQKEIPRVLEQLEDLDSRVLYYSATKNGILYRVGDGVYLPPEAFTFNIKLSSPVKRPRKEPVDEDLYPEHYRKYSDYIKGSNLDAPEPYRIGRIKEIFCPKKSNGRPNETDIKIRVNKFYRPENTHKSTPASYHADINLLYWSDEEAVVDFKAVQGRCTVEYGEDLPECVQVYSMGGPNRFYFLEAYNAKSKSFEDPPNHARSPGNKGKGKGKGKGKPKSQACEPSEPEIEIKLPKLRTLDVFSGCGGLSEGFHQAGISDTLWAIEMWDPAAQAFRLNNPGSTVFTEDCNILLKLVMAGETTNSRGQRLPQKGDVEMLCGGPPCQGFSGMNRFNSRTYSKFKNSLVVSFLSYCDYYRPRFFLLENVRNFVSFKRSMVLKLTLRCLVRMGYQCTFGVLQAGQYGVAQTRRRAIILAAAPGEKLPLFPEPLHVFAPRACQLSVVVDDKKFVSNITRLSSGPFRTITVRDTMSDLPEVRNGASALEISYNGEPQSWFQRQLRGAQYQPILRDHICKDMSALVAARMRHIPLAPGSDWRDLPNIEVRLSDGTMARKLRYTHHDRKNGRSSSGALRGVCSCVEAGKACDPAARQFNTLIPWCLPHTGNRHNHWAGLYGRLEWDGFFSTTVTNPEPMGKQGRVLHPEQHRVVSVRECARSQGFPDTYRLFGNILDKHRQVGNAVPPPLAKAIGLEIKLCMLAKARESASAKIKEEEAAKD
DNA (cytosine-5)-methyltransferase 3A, sequence (Q9Y6K1 whole entry, looked up): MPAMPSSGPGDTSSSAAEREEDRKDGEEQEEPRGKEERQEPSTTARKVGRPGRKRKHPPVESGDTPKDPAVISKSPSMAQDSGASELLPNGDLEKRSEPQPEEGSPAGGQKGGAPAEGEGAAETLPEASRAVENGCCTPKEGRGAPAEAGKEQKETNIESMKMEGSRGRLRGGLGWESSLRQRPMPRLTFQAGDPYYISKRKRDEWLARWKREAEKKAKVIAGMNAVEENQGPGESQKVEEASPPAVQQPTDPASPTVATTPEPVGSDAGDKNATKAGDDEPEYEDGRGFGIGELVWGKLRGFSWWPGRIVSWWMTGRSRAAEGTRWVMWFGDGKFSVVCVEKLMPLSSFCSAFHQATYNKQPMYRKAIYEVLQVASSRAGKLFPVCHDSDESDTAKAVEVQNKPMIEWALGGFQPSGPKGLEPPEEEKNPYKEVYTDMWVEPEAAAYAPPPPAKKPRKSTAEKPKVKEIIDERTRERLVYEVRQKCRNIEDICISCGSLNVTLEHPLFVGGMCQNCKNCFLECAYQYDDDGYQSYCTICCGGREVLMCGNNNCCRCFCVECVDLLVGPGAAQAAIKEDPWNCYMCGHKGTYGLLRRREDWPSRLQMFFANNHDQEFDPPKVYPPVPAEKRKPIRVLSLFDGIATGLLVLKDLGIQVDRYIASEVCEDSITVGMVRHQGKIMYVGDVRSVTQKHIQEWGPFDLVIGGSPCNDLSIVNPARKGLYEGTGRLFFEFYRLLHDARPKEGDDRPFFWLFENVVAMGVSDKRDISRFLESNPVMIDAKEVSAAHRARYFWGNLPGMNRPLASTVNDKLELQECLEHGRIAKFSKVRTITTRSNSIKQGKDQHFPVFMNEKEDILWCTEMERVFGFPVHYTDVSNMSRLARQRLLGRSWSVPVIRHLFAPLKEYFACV
Cyclin-dependent kinase 4, sequence (P11802 whole entry): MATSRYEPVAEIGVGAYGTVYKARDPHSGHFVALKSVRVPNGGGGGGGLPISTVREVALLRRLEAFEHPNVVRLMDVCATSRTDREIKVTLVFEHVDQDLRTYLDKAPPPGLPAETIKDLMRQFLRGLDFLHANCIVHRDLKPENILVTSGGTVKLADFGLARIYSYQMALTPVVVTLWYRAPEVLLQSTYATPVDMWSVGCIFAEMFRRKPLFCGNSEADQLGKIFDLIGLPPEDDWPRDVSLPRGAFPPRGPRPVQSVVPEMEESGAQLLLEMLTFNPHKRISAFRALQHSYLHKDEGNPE

Structure (SMILES): C=CC(=O)Nc1cc(Nc2nccc(-c3cn(C)c4ccccc34)n2)c(OC)cc1N(C)CCN(C)C [OSIMERTINIB]
- IC50 (KG-1): 530 nM
- IC50 (MDA-MB-468): 1300 nM
- IC50 (A549 [1]): 1970 nM

- IC50 [2]: 1.2 nM
- IC50 (Histone deacetylase 1 [3]): 17 nM
Structure (SMILES): Cc1nc2ccc(-c3nc(Nc4ccc(NC(=O)CCCCCC(=O)NO)cc4)ncc3F)cc2n1C(C)C
- IC50 [4]: 126 nM

- IC50 (Histone deacetylase [5]): 5.7 µM
- IC50 [6]: 7.14 µM
Structure (SMILES): COc1ccc2c(NC3CCN(Cc4ccccc4)CC3)nc(NCCNC(=O)CCCCC(=O)NO)nc2c1

- IC50 (A549 [7]): 0.71 µM
- IC50 [8]: 4.3 nM
- IC50 (Histone deacetylase 1 [3]): 1.1 nM
- IC50 [9]: 10.3 nM
Structure (SMILES): O=C(CCCCCCn1cc(-c2ccc3ncnc(Nc4ccc(Br)cc4F)c3c2)nn1)NO

- IC50 (Histone deacetylase 1 [10]): 4.16 µM
- IC50 [11]: 930 nM
- IC50 [12]: 2020 nM
Structure (SMILES): O=C(NO)C1CCN(CC(O)COC(Cn2c3ccccc3c3ccccc32)Cn2c3ccccc3c3ccccc32)CC1 (centres undefined)

Structure (SMILES): Cc1sc2c(c1C)C(c1ccc(Cl)cc1)=N[C@@H](CC(=O)Nc1ccc(C(=O)NO)cc1)c1nnc(C)n1-2
- IC50 (CAPAN-1): 150 nM
- IC50 (Histone deacetylase 1 [13]): 21 nM

Structure (SMILES): Cn1c(CCCCCCC(=O)NO)nc2cc(N(CCCl)CCCl)ccc21 [TINOSTAMUSTINE]
- IC50 [14]: 6 nM

- IC50 (4T1): 10 µM
Structure (SMILES): CCC(CC)(c1ccc(OCC(=O)NO)cc1)c1ccc(OCC(O)C(C)(C)C)c(C)c1 (centres undefined)

- IC50 [15]: 5.7 µM
- IC50 (Histone deacetylase [16]): 85 nM
- IC50 (MDA-MB-468): 230 nM
- IC50 (A549 [1]): 2190 nM
Structure (SMILES): COc1cc(NC(=O)CCCCCCCCCCC(=O)NO)ccc1Nc1nccc(-c2cn(C)c3ccccc23)n1
- IC50 (KG-1): 240 nM

- IC50 (THP-1): 15.5 µM
Structure (SMILES): Cc1noc(C)c1-c1ccc2c(c1)c(Cc1ccc(F)cc1)cn2CCCCCCC(=O)NO

- IC50 (U-87 MG): 8 µM
- IC50 (U-251): 7 µM
Structure (SMILES): O=C(CCCCCNC(=O)c1cc(O)c2c(c1)C(=O)c1cccc(O)c1C2=O)NO
- IC50 (T98G): 5.5 µM

- IC50 (A549 [7]): 16.8 µM
Structure (SMILES): C#Cc1cccc(Nc2ncnc3cc(OCCOC)c(OCCOC)cc23)c1 [ERLOTINIB]
